Data: US20020025918A1, “Methods of using helical peptides in plants” (priority 1987, published 2002)
Converted amounts (≈) assume the structure as drawn. Where two headings read alike, the source gives them in different places. Residues, ends and D or L forms follow the SMILES beside them.

Legend:
E. coli = assay: MBC and MIC susceptibility test; format: cell-based
B-16 myeloma cells = assay: B-16 cell viability, trypan blue exclusion; format: cell-based; settings: 100 μM peptide, one hour
Description: (§1) B-16 myeloma cells and normal 3T3 […] fibroblasts were either permitted to attach to the test plate, or treated with trypsin to free the cells from the plastic dish prior to treatment. Cells were then treated with 100 μM lytic peptide for one hour as described above, and cell viability was then determined by trypan blue exclusion.

P. aeruginosa = assay: MBC and MIC susceptibility test; format: cell-based
S. aureus = assay: MBC and MIC susceptibility test; format: cell-based
[1] = Role of cytoskeletal structure in susceptibility to lysis, FDD cell viability; settings: donkey, primary fetal donkey dermal cells (FDD), % Viability of Treated DD Cells, 100 μM peptide 15 minutes
[2] = Survival of non-infected catfish fingerlings injected with peptide; format: in vivo; settings: 200 μg i.p. once per day for 4 days
Description: […] Treatment groups of the fish were then injected intraperitoneally (i.p.) with the lytic peptide LSB-37 dissolved in saline, or a saline control once per day for a period of 4 days.

Eschera Coli = assay: MIC/MBC, fresh isolates; format: cell-based; settings: fresh isolate Eschera Coli
Source text: (§2) The procedure of example 2 was followed using a variety of freshly isolated bacterial samples.

Acinetobacter Cal Anit = assay: MIC/MBC, fresh isolates; format: cell-based; settings: fresh isolate Acinetobacter Cal Anit
Source text: as §2

Pseudomonas aeruginosa-3 = assay: MIC/MBC, fresh isolates; format: cell-based; settings: fresh isolate Pseudomonas aeruginosa-3
Source text: as §2

Serratia Marcescens = assay: MIC/MBC, fresh isolates; format: cell-based; settings: fresh isolate Serratia Marcescens
Source text: as §2

Pseudomonas aeruginosa-1 = assay: MIC/MBC, fresh isolates; format: cell-based; settings: fresh isolate Pseudomonas aeruginosa-1
Source text: as §2

Enterobacteria Cloacae = assay: MIC/MBC, fresh isolates; format: cell-based; settings: fresh isolate Enterobacteria Cloacae
Source text: as §2

Pseudomonas aeruginosa-2 = assay: MIC/MBC, fresh isolates; format: cell-based; settings: fresh isolate Pseudomonas aeruginosa-2
Source text: as §2

Enterococcus-2 = assay: MIC/MBC, fresh isolates; format: cell-based; settings: fresh isolate Enterococcus-2
Source text: as §2

Citrobacter Diversus = assay: MIC/MBC, fresh isolates; format: cell-based; settings: fresh isolate Citrobacter Diversus
Source text: as §2

Morganella morganil = assay: MIC/MBC, fresh isolates; format: cell-based; settings: fresh isolate Morganella morganil
Source text: as §2

Enterococcus-1 = assay: MIC/MBC, fresh isolates; format: cell-based; settings: fresh isolate Enterococcus-1
Source text: as §2

Citrobacter Freundii = assay: MIC/MBC, fresh isolates; format: cell-based; settings: fresh isolate Citrobacter Freundii
Source text: as §2

Klebsiella pheumoniae = assay: MIC/MBC, fresh isolates; format: cell-based; settings: fresh isolate Klebsiella pheumoniae
Source text: as §2

Staph Coag neg = assay: MIC/MBC, fresh isolates; format: cell-based; settings: fresh isolate Staph Coag neg
Source text: as §2

Klebsiella pheumoniae-2 = assay: MIC/MBC, fresh isolates; format: cell-based; settings: fresh isolate Klebsiella pheumoniae-2
Source text: as §2

Enterococcus-3 = assay: MIC/MBC, fresh isolates; format: cell-based; settings: fresh isolate Enterococcus-3
Source text: as §2

Staph aureus = assay: MIC/MBC, fresh isolates; format: cell-based; settings: fresh isolate Staph aureus
Source text: as §2

[3] = 3T3 fibroblast viability, trypan blue exclusion; format: cell-based; settings: human, 100 μM peptide, one hour, read-out: % Cell Viability
Description: as §1

[4] = tested on: Human mononuclear leukocytes; assay: 3H-thymidine uptake in WBC (proliferation); format: cell-based
Description: Human mononuclear leukocytes were isolated from whole blood in the following manner. Blood was collected in vacutainer tubes containing EDTA, and was then diluted with an equal valume of calcium and magnesium-free PBS and layered over Histopaque resin (GIBCO). The tubes were centrifuged for 30 minutes at 25° C. and 450× g. The plasma and platelets above the banded layer of cells in the resulting gradient were removed and discarded. The banded white blood cells were removed to fresh test tubes, washed 3 times with PBS, and resuspended in RPMI medium containing 10% fetal bovine serum (FBS), mercaptoethanol, and penicillin and streptomycin as antibiotics. The cells were then counted and resuspended to a final concentration of 3×10^6 cells/ml.
To each well of a 96 well flat-bottomed microtiter plate was aded 100 μl of cells (3×10^5 cells). Treatment groups were set in quadruplicate samples. The appropriate concentration of test peptide and/or the mitogen hytohemaglutinate (PHA), was added in a total volume of 100 μl of medium to the test wells. The plates were then incubated at 37° C. and 5% CO2 for a duration of 72 hours. At the end of the incubation period, 1 μCi of 3H-thymidine in 1 μl TRIS-HCI, PH8 was added to each well, and the plates incubated an additional 18 hours.
Cellular DNA was harvested onto glass fiber filters using a semi-automatic cell harvester. The glass filters were then placed into vials containing scintillation fluid, and the samples were counted in a scintillation counter. The uptake of 3H-thymidine is an indiator of cell proliferation, thus the higher the number of counts in the sample, the greater the proliferative activity of the cells. The results in Table XI indicate that low dose of the synthetic peptides of this invention stimulate cell growth.

Staph aureus-MR-2 = assay: MIC/MBC, fresh isolates; format: cell-based; settings: fresh isolate Staph aureus-MR-2
Source text: as §2

Staph auerus-MR-1 = assay: MIC/MBC, fresh isolates; format: cell-based; settings: fresh isolate Staph auerus-MR-1
Source text: as §2

CC[C@H](C)[C@H](NC(=O)CNC(=O)[C@H](CC(N)=O)NC(=O)[C@H](CCCNC(=N)N)NC(=O)[C@@H](NC(=O)[C@H](CC(N)=O)NC(=O)[C@H](CCCNC(=N)N)NC(=O)CNC(=O)[C@@H](NC(=O)[C@H](CCCCN)NC(=O)[C@H](CCC(=O)O)NC(=O)[C@@H](NC(=O)[C@H](CCCCN)NC(=O)[C@H](CCCCN)NC(=O)[C@H](Cc1ccccc1)NC(=O)[C@@H](NC(=O)[C@H](CCCCN)NC(=O)[C@H](Cc1c[nH]c2ccccc12)NC(=O)[C@H](CCCCN)NC(=O)[C@@H]1CCCN1C(=O)[C@@H](N)CC(C)C)C(C)C)[C@@H](C)CC)C(C)C)[C@@H](C)CC)C(=O)N[C@H](C(=O)N[C@@H](CCCCN)C(=O)N[C@@H](C)C(=O)NCC(=O)N1CCC[C@H]1C(=O)N[C@@H](C)C(=O)N[C@H](C(=O)N[C@@H](C)C(=O)N[C@H](C(=O)N[C@@H](CC(C)C)C(=O)NCC(=O)N[C@@H](CCC(=O)O)C(=O)N[C@@H](C)C(=O)N[C@@H](CCCCN)C(=O)N[C@@H](C)C(=O)N[C@@H](CC(C)C)C(=O)NCC(N)=O)C(C)C)[C@@H](C)CC)C(C)C [LSB-37] (H-LPKWKVFKKIEKVGRNIRNGIVKAGPAIAVLGEAKALG-NH2)
antibacterial result of treatment (Table I; MBC) (E. coli): 16 µM
MBC (E. coli; Table III): 2.0 µM (≈ 8.14 µg/mL)
% Cell Viability (B-16 myeloma cells; B-16 Monolayer): 78%
% Cell Viability (B-16 myeloma cells; B-16 Suspension (trypsinized)): 22%
antibacterial result of treatment (Table I; MBC) (P. aeruginosa; P. aeruginosa (−)): 8 µM
MBC (P. aeruginosa; Table III, P. aeuriginosa (−)): 3.6 µM (≈ 14.7 µg/mL)
antibacterial result of treatment (Table I; MBC) (S. aureus; S. auerus (+)): 64 µM
MBC (S. aureus; Table III, S. aureus (+)): 64 µM (≈ 260 µg/mL)
viability at 15 minutes, 100 μM ([1]; Cold-treated (4° C.)): 70%
viability at 15 minutes, 100 μM ([1]; Warm-treated (37° C.)): 96%
viability at 15 minutes, 100 μM ([1]; with colchicine 0.1 μg/ml (cytoskeletal inhibitor), Colchicine-treated (0.1 μg/ml)): 40%
viability at 15 minutes, 100 μM ([1]; with cytochalasin D 5 μg/ml (cytoskeletal inhibitor), Cytochalasin D-treated (5 μg/ml)): 32%
% Survival [2]: 100%
MBC (Eschera Coli): 4 µM (≈ 16.3 µg/mL)
MIC (Eschera Coli): 1 µM (≈ 4.07 µg/mL)
MBC (Acinetobacter Cal Anit): 1 µM (≈ 4.07 µg/mL)
MIC (Acinetobacter Cal Anit): 0.5 µM (≈ 2.04 µg/mL)
MBC (Pseudomonas aeruginosa-3): 16 µM (≈ 65.1 µg/mL)
MIC (Pseudomonas aeruginosa-3): 8 µM (≈ 32.6 µg/mL)
MIC (Serratia Marcescens): 32 µM (≈ 130 µg/mL)
MBC (Pseudomonas aeruginosa-1): 16 µM (≈ 65.1 µg/mL)
MIC (Pseudomonas aeruginosa-1): 8 µM (≈ 32.6 µg/mL)
MBC (Enterobacteria Cloacae): 8 µM (≈ 32.6 µg/mL)
MIC (Enterobacteria Cloacae): 2 µM (≈ 8.14 µg/mL)
MBC (Pseudomonas aeruginosa-2): 16 µM (≈ 65.1 µg/mL)
MIC (Pseudomonas aeruginosa-2): 4 µM (≈ 16.3 µg/mL)
MIC (Enterococcus-2): 32 µM (≈ 130 µg/mL)
MBC (Citrobacter Diversus): 4 µM (≈ 16.3 µg/mL)
MIC (Citrobacter Diversus): 1 µM (≈ 4.07 µg/mL)
MIC (Morganella morganil): 32 µM (≈ 130 µg/mL)
MBC (Enterococcus-1): 32 µM (≈ 130 µg/mL)
MIC (Enterococcus-1): 8 µM (≈ 32.6 µg/mL)
MBC (Citrobacter Freundii): 4 µM (≈ 16.3 µg/mL)
MIC (Citrobacter Freundii): 1 µM (≈ 4.07 µg/mL)
MBC (Klebsiella pheumoniae): 8 µM (≈ 32.6 µg/mL)
MIC (Klebsiella pheumoniae): 2 µM (≈ 8.14 µg/mL)
MIC (Staph Coag neg): 32 µM (≈ 130 µg/mL)
MBC (Klebsiella pheumoniae-2): 8 µM (≈ 32.6 µg/mL)
MIC (Klebsiella pheumoniae-2): 4 µM (≈ 16.3 µg/mL)
MIC (Enterococcus-3): 32 µM (≈ 130 µg/mL)
MIC (Staph aureus): 32 µM (≈ 130 µg/mL)
viability at 1 h, 100 μM ([3]; normal 3T3 human fibroblasts, 3T3 Suspension (trypsinized)): 12%
viability at 1 h, 100 μM ([3]; 3T3 Monolayer): 94%

CC(C)C[C@H](NC(=O)[C@H](CCCCN)NC(=O)[C@H](CCCCN)NC(=O)[C@H](C)NC(=O)[C@H](CC(C)C)NC(=O)[C@H](CCCCN)NC(=O)[C@H](C)NC(=O)[C@H](CC(C)C)NC(=O)[C@H](CCCCN)NC(=O)[C@H](CCCCN)NC(=O)[C@H](C)NC(=O)[C@H](CC(C)C)NC(=O)[C@H](CCCCN)NC(=O)[C@H](CCCCN)NC(=O)[C@H](CC(C)C)NC(=O)[C@H](CCCCN)NC(=O)[C@H](CCCCN)NC(=O)[C@H](C)NC(=O)[C@H](CC(C)C)NC(=O)[C@H](CCCCN)NC(=O)[C@H](CCCCN)NC(=O)[C@H](C)NC(=O)[C@@H](N)Cc1ccccc1)C(N)=O [Anubis-2] (H-FAKKLAKKLKKLAKKLAKLAKKL-NH2)
3H-Thymidine Uptake in WBC, % of Control ([4]; peptide 10 μM, PHA 0 mg): 149%
3H-Thymidine Uptake in WBC, % of Control ([4]; peptide 10 μM, PHA 0.5 mg): 290%
3H-Thymidine Uptake in WBC, % of Control ([4]; peptide 10 μM, PHA 5.0 mg): 120%
3H-Thymidine Uptake in WBC, % of Control ([4]; peptide 25 μM, PHA 0 mg): 46%
3H-Thymidine Uptake in WBC, % of Control ([4]; peptide 25 μM, PHA 0.5 mg): 393%
3H-Thymidine Uptake in WBC, % of Control ([4]; peptide 25 μM, PHA 5.0 mg): 108%
3H-Thymidine Uptake in WBC, % of Control ([4]; peptide 50 μM, PHA 0 mg): 19%
3H-Thymidine Uptake in WBC, % of Control ([4]; peptide 50 μM, PHA 0.5 mg): 4%
3H-Thymidine Uptake in WBC, % of Control ([4]; peptide 50 μM, PHA 5.0 mg): 1%
3H-Thymidine Uptake in WBC, % of Control ([4]; peptide 100 μM, PHA 0 mg): 26%
3H-Thymidine Uptake in WBC, % of Control ([4]; peptide 100 μM, PHA 0.5 mg): 5%
3H-Thymidine Uptake in WBC, % of Control ([4]; peptide 100 μM, PHA 5.0 mg): 0%
MBC (Eschera Coli): 12.8 µM (≈ 33.4 µg/mL)
MIC (Eschera Coli): 6.4 µM (≈ 16.7 µg/mL)
MBC (Acinetobacter Cal Anit): 3.2 µM (≈ 8.35 µg/mL)
MIC (Acinetobacter Cal Anit): 3.2 µM (≈ 8.35 µg/mL)
MBC (Pseudomonas aeruginosa-3): 51.2 µM (≈ 134 µg/mL)
MIC (Pseudomonas aeruginosa-3): 6.4 µM (≈ 16.7 µg/mL)
MIC (Serratia Marcescens): 51.2 µM (≈ 134 µg/mL)
MBC (Staph aureus-MR-2): 25.6 µM (≈ 66.8 µg/mL)
MIC (Staph aureus-MR-2): 12.8 µM (≈ 33.4 µg/mL)
MBC (Pseudomonas aeruginosa-1): 25.6 µM (≈ 66.8 µg/mL)
MIC (Pseudomonas aeruginosa-1): 6.4 µM (≈ 16.7 µg/mL)
MBC (Enterobacteria Cloacae): 12.8 µM (≈ 33.4 µg/mL)
MIC (Enterobacteria Cloacae): 6.4 µM (≈ 16.7 µg/mL)
MBC (Pseudomonas aeruginosa-2): 6.4 µM (≈ 16.7 µg/mL)
MIC (Pseudomonas aeruginosa-2): 3.2 µM (≈ 8.35 µg/mL)
MIC (Enterococcus-2): 51.2 µM (≈ 134 µg/mL)
MBC (Citrobacter Diversus): 6.4 µM (≈ 16.7 µg/mL)
MIC (Citrobacter Diversus): 3.2 µM (≈ 8.35 µg/mL)
MIC (Morganella morganil): 51.2 µM (≈ 134 µg/mL)
MBC (Enterococcus-1): 3.2 µM (≈ 8.35 µg/mL)
MIC (Enterococcus-1): 1.6 µM (≈ 4.17 µg/mL)
MBC (Citrobacter Freundii): 6.4 µM (≈ 16.7 µg/mL)
MIC (Citrobacter Freundii): 3.2 µM (≈ 8.35 µg/mL)
MBC (Klebsiella pheumoniae): 6.4 µM (≈ 16.7 µg/mL)
MIC (Klebsiella pheumoniae): 3.2 µM (≈ 8.35 µg/mL)
MBC (Staph Coag neg): 3.2 µM (≈ 8.35 µg/mL)
MIC (Staph Coag neg): 1.6 µM (≈ 4.17 µg/mL)
MBC (Klebsiella pheumoniae-2): 25.6 µM (≈ 66.8 µg/mL)
MIC (Klebsiella pheumoniae-2): 6.4 µM (≈ 16.7 µg/mL)
MIC (Staph auerus-MR-1): 51.2 µM (≈ 134 µg/mL)
MIC (Enterococcus-3): 51.2 µM (≈ 134 µg/mL)
MBC (Staph aureus): 51.2 µM (≈ 134 µg/mL)
MIC (Staph aureus): 6.4 µM (≈ 16.7 µg/mL)
